Test system: CD8+ T cells
Assay: HLA restriction of mapped CD8+ BKV epitopes (ICS with peptide loaded HLA-matched and mismatched LCLs)
Type: cell-based, human
Conditions: CD8+ epitopes mapped in this study; T cells stimulated with peptide loaded HLA-matched and mismatched LCLs
Source text: In order to characterize the T cell responses directed towards these antigens and precisely map the HLA class I and class II-restricted T cell responses, individual overlapping peptides (15 aa long overlapping by 10 aa) were sourced for LTA, STA and VP1 proteins for T cell epitope mapping. A two-dimensional peptide matrix was used to distribute all individual peptides into small overlapping peptide pools. The matrix is set up in the way that each peptide occurs once on the ordinate (FIG. 3). These peptide pools were used in ICS assays. After the ICS analysis, T cell response to the peptide pools was compared with the matrix to identify individual peptides. These individual peptides were further assessed for T cell expansion and ICS analysis to identify potential BK. Once the 15 mer peptide was identified, further mimimalization of the epitope sequence was carried out to identify the optimal T cell epitope sequence. The 15 mer peptide sequences were trimmed from both N- and C-terminus to a minimal of 9 aa long peptides. Once the minimal peptide sequence was identified, further confirmation was carried out using limiting dose titration ICS assay. After mapping minimal epitope sequence, the HLA restriction of the epitope was identified by stimulating T cells using peptide loaded HLA-matched and mismatched LCLs. […]

Sequence | HLA Restriction
VKNPYPISFLL (BK polyomavirus) | Cw*07

Test system: CD4+ T cells
Assay: HLA restriction of mapped CD4+ BKV epitopes (ICS with peptide loaded HLA-matched and mismatched LCLs)
Type: cell-based, human
Conditions: CD4+ epitopes mapped in this study; T cells stimulated with peptide loaded HLA-matched and mismatched LCLs
Source text: In order to characterize the T cell responses directed towards these antigens and precisely map the HLA class I and class II-restricted T cell responses, individual overlapping peptides (15 aa long overlapping by 10 aa) were sourced for LTA, STA and VP1 proteins for T cell epitope mapping. A two-dimensional peptide matrix was used to distribute all individual peptides into small overlapping peptide pools. The matrix is set up in the way that each peptide occurs once on the ordinate (FIG. 3). These peptide pools were used in ICS assays. After the ICS analysis, T cell response to the peptide pools was compared with the matrix to identify individual peptides. These individual peptides were further assessed for T cell expansion and ICS analysis to identify potential BK. Once the 15 mer peptide was identified, further mimimalization of the epitope sequence was carried out to identify the optimal T cell epitope sequence. The 15 mer peptide sequences were trimmed from both N- and C-terminus to a minimal of 9 aa long peptides. Once the minimal peptide sequence was identified, further confirmation was carried out using limiting dose titration ICS assay. After mapping minimal epitope sequence, the HLA restriction of the epitope was identified by stimulating T cells using peptide loaded HLA-matched and mismatched LCLs.
In order to map the T cell epitope further analysis was carried out using sub pools of STA peptides (12 pools) designed based on the two dimensional matrix shown in FIG. 3. […] Similar epitope mapping process was carried out for other CD4^+ and CD8^+ T cell epitopes.

Sequence | HLA Restriction
CFTQWFGLDLTEETL [JCV variant […]] | DRB1*03/04
FNVPKRRYWLFKGPI [JCV variant […]] | DRB1*15
GGDEDKMKRMNTLYK [JCV variant […]] | DRB1*13
GTQQWRGLARYFKIR [JCV variant […]] | DRB1*11/8
KMKRMNTLYKKMEQD [JCV variant […]] | DRB1*13
RGLARYFKIRLRKRS [JCV variant […]] | DRB1*11
RKAYLRKCKEFHPDK [JCV variant […]] | DRB1*13
RRYWLFKGPIDSGKT [JCV variant […]] | DRB1*15
WDEDLFCHEDMFASD [JCV variant […]] | DQB5*01

From patent publication US20200197439A1, “IMM[…] POLYOMAVIRUSES” (Atara Biotherapeutics, Inc., priority 2016, published 2020)
